Reference: patent US6692937B2, “DNA encoding small and intermediate conductance calcium-activated potassium channels” (ICAgen, Incorporated, priority 1997, dated 2004)
Like-named read-outs stand apart in the source and are kept apart here.

Legend:
Type in all cases: cell-based
hIK1 = target: T1, hIK1 (Homo sapiens, UniProt O15554); assay: Macroscopic hIK1 currents in macropatches excised from Xenopus oocytes
T1 construct: expressed in transfected cells; host or cells: Xenopus oocytes injected with SP6-transcribed mRNA from vector pBF
Protocol: 3B. Example 3B describes the electrophysiology of the hIK1 channel. All hIK1 channel subunits were subcloned into the oocyte expression vector pBF (unpublished, graciously provided by Dr. B. Fakler) which provides 5′ and 3′ untranslated regions from the Xenopus β-globin gene flanking a polylinker containing multiple restriction sites. In vitro mRNAs were generated using SP6 polymerase (GibcoBRL); following synthesis, mRNAs were evaluated spectrophotometrically and by ethidium bromide staining after agarose gel electrophoresis.
As described above, Xenopus care and handling were in accordance with the highest standards of institutional guidelines. Frogs underwent no more than two surgeries, separated by at least three weeks, and All surgeries were performed using well established techniques. Frogs were anesthetized with an aerated solution of 3-aminobenzoic acid ethyl ester. Oocytes were studied 2-14 days after injection with 0.5-5 ng of mRNA.
Inside-out macropatches were excised into an intracellular solution containing 116 mM K-gluconate. 4 mM KCl, 10 mM HEPES (pH 7.2, adjusted with KOH) supplemented with CaCl2 to give free calcium concentration of 5 μM; the proportion of calcium binding to gluconate was determined by a computer program (CaBuf assuming a stability constant for Ca^2+ gluconate of 15.9M^−1 (Dawson et al., 1969). To obtain Ca^2+ concentrations below 1 μM, 1 mM EGTA was added to the bath solution and CaCl2 was added as calculated using the CaBuf program and published stability constants (Fabiato and Fabiato, 1979). Electrodes were pulled from thin-wailed, filamented borosilicate glass (World Precision Instruments) and filled with 116 mM K-gluconate, 4 mM KCl, 10 mM HEPES (pH 7.2). Electrode resistance was typically 2-5 MΩ. For outside-out macropatches, the solutions were reversed. Membrane patches were voltage clamped using an Axopatch 200A amplifier (Axon Instruments). The data were low-pass Bessel filtered at 1 kH and acquired using Pulse software (HEKA Electronik). Analysis was performed using Pulse, Kaleidagraph (Abelbeck), or IGOR (Wavemetrics) software. Unless otherwise stated all experiments were performed at room temperature from a holding potential of 0 mV. 2.5 second voltage ramps from −100 to either 60 or 100 mV were acquired at a sampling frequency of 500 Hz. Values were expressed as mean±SD. Statistical differences were determined using an unpaired t-test; p values <0.05 were considered significant.
(§1) To compare hIK1 and SK2, normalized current was plotted as a function of Ca^2+ concentration, and the data points fitted with the Hill equation.

rSK2 = target: T2, rSK2 (Rattus norvegicus, UniProt P70604); assay: Macroscopic currents in inside-out macropatches excised from Xenopus oocytes expressing rSK2
T2 construct: expressed in transfected cells; host or cells: Xenopus oocytes injected with in vitro transcribed mRNA
Excerpt: (§2) Electrode resistance was typically 2-5 MΩ. Membrane patches were voltage clamped using an Axopatch 200A amplifier (Axon Instruments).
as §1

hSK1 = target: T3, hSK1 (Homo sapiens, UniProt Q92952); assay: Macroscopic currents in inside-out macropatches excised from Xenopus oocytes expressing hSK1
T3 construct: expressed in transfected cells; host or cells: Xenopus oocytes injected with in vitro transcribed mRNA
Excerpt: as §2

T3 sequence (Q92952 other isoform, or with tags, fused parts or gaps): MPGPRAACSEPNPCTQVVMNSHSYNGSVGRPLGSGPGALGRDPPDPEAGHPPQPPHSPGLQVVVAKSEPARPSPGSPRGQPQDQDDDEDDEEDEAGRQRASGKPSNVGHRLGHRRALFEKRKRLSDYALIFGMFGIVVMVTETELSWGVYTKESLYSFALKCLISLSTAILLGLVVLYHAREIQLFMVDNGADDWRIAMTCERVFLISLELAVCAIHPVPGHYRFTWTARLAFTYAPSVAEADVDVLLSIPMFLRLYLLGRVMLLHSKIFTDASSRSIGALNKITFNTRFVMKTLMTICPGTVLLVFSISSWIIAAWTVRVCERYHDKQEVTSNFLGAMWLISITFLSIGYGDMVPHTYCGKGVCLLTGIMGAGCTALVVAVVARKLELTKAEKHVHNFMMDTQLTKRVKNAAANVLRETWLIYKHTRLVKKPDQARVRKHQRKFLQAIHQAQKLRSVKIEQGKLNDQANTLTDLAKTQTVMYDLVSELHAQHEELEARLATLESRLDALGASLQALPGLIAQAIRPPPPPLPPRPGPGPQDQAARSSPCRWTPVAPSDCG
T2 sequence (P70604 whole entry): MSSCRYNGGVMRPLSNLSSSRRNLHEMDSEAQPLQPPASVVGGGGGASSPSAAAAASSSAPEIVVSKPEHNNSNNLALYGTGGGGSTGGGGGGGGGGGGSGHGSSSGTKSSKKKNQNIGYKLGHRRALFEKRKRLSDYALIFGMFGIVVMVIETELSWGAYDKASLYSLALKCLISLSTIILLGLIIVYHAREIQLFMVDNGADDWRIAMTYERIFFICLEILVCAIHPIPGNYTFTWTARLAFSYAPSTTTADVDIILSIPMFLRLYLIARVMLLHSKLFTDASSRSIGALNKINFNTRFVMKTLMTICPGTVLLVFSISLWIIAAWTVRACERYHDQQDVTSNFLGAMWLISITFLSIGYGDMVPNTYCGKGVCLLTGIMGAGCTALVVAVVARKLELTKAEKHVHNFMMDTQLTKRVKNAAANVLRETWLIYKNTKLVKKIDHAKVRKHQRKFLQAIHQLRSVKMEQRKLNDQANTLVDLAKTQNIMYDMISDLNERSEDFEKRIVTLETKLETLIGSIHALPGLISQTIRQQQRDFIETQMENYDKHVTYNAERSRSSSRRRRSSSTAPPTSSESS

Which “reduction of hIK1 currents” value (hIK1; 100 nM apamin) does the source give for `CC(C)C[C@@H]1NC(=O)[C@H](C)NC(=O)[C@H]([C@@H](C)O)NC(=O)[C@H](CCC(=O)O)NC(=O)[C@@H]2CCCN2C(=O)[C@H](C)NC(=O)[C@H](CCCCN)NC(=O)[C@@H]2CSSC[C@@H](C(=O)N[C@@H](CCC(N)=O)C(=O)N[C@@H](CCC(N)=O)C(=O)N[C@@H](Cc3cnc[nH]3)C(N)=O)NC(=O)[C@H](CCCNC(=N)N)NC(=O)[C@H](CCCNC(=N)N)NC(=O)[C@H](C)NC(=O)[C@H](CSSC[C@H](N)C(=O)N[C@@H](CC(N)=O)C(=O)N2)NC1=O` [apamin] here?
Its value is 12±5%.

For `[Ca+2]` [calcium], which “Hill coefficient of calcium dependence, rSK2” value (rSK2; Hill fit, 8 patches) is on record?
The value was 4.81±1.46.

And the “Hill coefficient of Ca2+-dependence, SK2” value (rSK2; n=4)?
The value was 3.5±0.4.

And the Kd (rSK2; slope conductance at reversal potential versus calcium, Hill fit, 8 patches, read-out: average Kd for calcium, rSK2)?
Its Kd is 0.63 ± 0.23 µM.

What about the “Hill coefficient of Ca2+-dependence, hIK1” value (hIK1; n=7) of the same compound?
Its value is 1.7±0.3.

What about the EC50 (hIK1; normalized current versus Ca2+ concentration, n=7, read-out: K0.5 (concentration for half-maximal activation), hIK1) of the same compound?
The EC50 was 0.32 ± 0.03 µM.

What about the “Hill coefficient of calcium dependence, hSK1” value (hSK1; Hill fit) of the same compound?
The value was 3.90±0.45.

And the Kd (hSK1; Hill fit, read-out: Kd for calcium, hSK1)?
The Kd was 0.7 ± 0.06 µM.

Which Kd (rSK2; 5 μM Ca2+, inside-out macropatches, dTC in patch pipette, read-out: Kd for block of rSK2 currents) does the source give for `COc1cc2c3cc1Oc1cc(ccc1O)C[C@@H]1c4c(cc(OC)c(O)c4Oc4ccc(cc4)C[C@@H]3N(C)CC2)CC[N+]1(C)C` [dTC, d-tubocurare, reference compound] here?
Its Kd is 2.4 µM.

And the “fold less sensitive, hSK1 versus rSK2” value (hSK1; ratio of Kd hSK1 to Kd rSK2)?
The value was “approximately 30 fold”.

What about the Kd (hSK1; read-out: Kd for block of hSK1) of the same compound?
Its Kd is 76.2 µM.

Which “block of hIK1” value (hIK1; 10 μM ketoconazole) does the source give for `CC(=O)N1CCN(c2ccc(OCC3COC(Cn4ccnc4)(c4ccc(Cl)cc4Cl)O3)cc2)CC1` (stereo not shown) [ketoconazole] here?
Its value is 24±6%.

With “iberiotoxin (QFTDVDCSVSKECWSVCKDLFGVDRGKCMGKKCRCYQ) [IBX]” as the compound, how does the “block of hIK1 currents” value (hIK1; 50 nM IBX) read?
The value was 15±3%.
